Experimental data published in patent publication US9556437B2, “FAT1 gene in cancer and inflammation” (DEPARTMENT OF BIOTECHNOLOGY (DBT), priority 2012, dated 2017).
Entries after “also recorded” stand apart in the source; their conditions may differ.

Assays:
Format in all cases: cell-based, human
FAT1 mRNA = test: FAT1 knockdown by siRNA, q-PCR for FAT1; details: U87MG cell line
Experimental: (§1) Cell Culture and siRNA Transfection: The human glioma cell lines U87MG, U373, A172, T98G, GOS3 and SW1088 were obtained from ATCC; Rockville, Md., cultured in DMEM (Sigma-Aldrich, Switzerland) supplemented with 10% (v/v) FCS (Sigma-Aldrich), 3.7 g/l sodium bicarbonate (Sigma-Aldrich), Ciprofloxacin 10 μg/ml and 5% CO2 at 37° C. For transfection, 2×10^5 cells were seeded per 25 cm^2 flask. After 24 hrs, cells were transfected with FAT1 siRNA and universal medium GC control siRNA (Invitrogen) according to the manufacturer's protocol with a final concentration of 20 nM of siRNA using LIPOFECTAMINE 2000 (Invitrogen) and Opti-Mem media (Invitrogen). After 4 hrs of siRNA transfection, the media was supplemented with DMEM containing 2×FCS. The ability of each siRNA to mediate knockdown of FAT1 mRNA was confirmed using qRT-PCR. Photomicrographs of the cells were taken using an inverted phase contrast microscope (Nikon TMS, Phase contrast microscope, Japan). For simultaneous knockdown of FAT1 and PDCD4, siRNA from Dharmacon were used. Transfection was performed as earlier with 50 nM of FAT1 siRNA along with 50 nM of PDCD4 siRNA or 50 nM of control siRNA.
(§2) cDNA Synthesis and Quantitative PCR: Total RNA was isolated from cells at appropriate time point (vide supra) using TRIzol reagent (Invitrogen), quantified using a Nanodrop ND-1000 spectrophotometer. […]

PLAU (Urokinase) = test: PLAU mRNA expression by q-PCR; details: U87MGsiFAT1 cells
Experimental: as §1, §2

A172 cells = test: Invasion assay, matrigel; details: A172siFAT1 vs siControl, P<0.01
Experimental: (§3) Migration and Invasion Assays: The modified Boyden chamber/matrigel assay was performed according to the manufacturer's directions (BD Biosciences, Bedford, Mass.). For in vitro migration assays, chambers with control inserts that lacked the matrigel coating were used. Transfections were carried out in U87MG and A172 cells and 48 hrs later 3×10^4 U87MG cells/well and 7×10^4 A172 cells/well were resuspended in serum-free DMEM and seeded in triplicate in matrigel-coated (1 mg/ml; BD Biosciences) and uncoated control inserts (8-μm pore-size, BD Bioscience, Bedford, Mass.). The remaining protocol was done as previously described.

U87MG cells [1] = test: Invasion assay, matrigel; details: U87MGsiFAT1 vs siControl, P<0.01
Experimental: as §3

[2] = test system: AP-1 transcriptional activity; test: AP-1 luciferase assay; details: U87MGsiFAT1 vs U87siControl, p<0.01
Experimental: AP-1 and COX-2 Promoter Luciferase Assay: U87MG cells (40000 cells/well) were plated in 6-well plates in triplicate on day zero. On day 1, cells were transfected with siFAT1 and siControl. On day 2 cells were transiently transfected with 4×AP-1-luciferase reporter plasmids as described previously. Cells were transfected with 1 μg of AP-17× luciferase reporter plasmid, along with 50 ng of pRL-TK (Renilla luciferase) control plasmid using LIPOFECTAMINE2000 as the transfection reagent. After 48 hrs, the cells were lysed by 1× passive-lysis-buffer (Promega, Madison, Wis., USA) and assayed for luciferase activity as previously described. For COX-2 luciferase assay U87MG cells were transfected with siFAT1 and siControl on day 1 and after 4 hrs incubation were treated with 10 μM SR11302. On day2 cells were transiently transfected with COX-2 reporter plasmid and again treated with 10 μM SR11302. After 48 hrs, the cells were assayed for luciferase activity.

U87MG cells [3] = test: Cell cycle analysis by flow cytometry (PI staining); details: FACS, 72 hrs after transfection, vs siControl
Experimental: On day 1, siRNA transfection was carried out. 1 ml of OPTIMEM, 50 picomoles of siRNA (siControl and siFAT1) and 3 μl of LIPOFECTAMINE 2000 was used per well. Cells were then analyzed by flow-cytometery after 72 hrs of transfection to assess the cell cycle distribution of individual cells. Cells were fixed in 70% ethanol overnight at −20′C followed by propidium iodide (PI) staining. Florescence was measured on FACS (florescence activated cell sorter, BD Biosciences, Bedford, Mass.). […] On day 1, transfection was carried out. 50 μl of OPTIMEM, 2 picomoles of siRNA (control and FAT1 siRNA) and 0.5 μl of LIPOFECTAMINE 2000 was used per well. After 4 hrs incubation at 37° C., 50 μl 2× media was added per well. After every time point (24, 48, 72 and 96 hrs of transfection), media was removed from wells and 100 μl of MTT (0.2 mg/ml) was added per well and incubated for 2-4 hrs. The formazan crystals formed were dissolved by addition of 100 μl of DMSO and absorbance was measured at 570 nm.

U87MG cells [4] = test: In vitro Scratch Assay of cell migration
Experimental: FIGS. 14A to 14D: Effect of NS-398 and FAT1 knockdown simultaneously on Cell Migration by In-vitro Scratch Assay. The in vitro Scratch Assay was performed at 72 hours after culturing cells as follows: At Day 0, 5,000 U87MG cells are plated per well of a 96 well plate. […] (C) Assay of cell migration by the Modified Boyden Chamber Assay under conditions of normoxia and hypoxia. (D) Quantitation of data from (C).
The Scratch Assay is performed at 72 hours after treatment. A scratch is made on the culture surface using a sterile 10 μl tip and cells were allowed to grow. Images were captured after every 3 hrs to monitor the closure of the wound in the culture surface for next 24 hrs.

## siFAT1: FAT1 specific siRNA (Invitrogen), FAT Stealth RNAi siRNA-I (HSS103567), used for further experiments (sense CCCAACACACCUGUGGUCAUGGUAA; antisense UUACCAUGACCACAGGUGUGUUGGG; Stealth modification, chemistry not fully specified; listed as Homo sapiens)
FAT1 mRNA
  knockdown efficiency among three FAT1 siRNAs: maximum knockdown efficiency
PLAU (Urokinase)
  decrease in PLAU mRNA expression: more than 10 fold
A172 cells
  reduction in invasion: > 1.5 fold
U87MG cells [1]
  reduction in invasion: > 2 fold
[2]
  reduction in AP-1 luciferase activity: 2 fold
U87MG cells [3]
  distribution of cell population in different phases of cell cycle: no variation; also recorded: No difference
U87MG cells [4]; Scratch Assay at 72 hours after treatment
  inhibition of cell migration: about 50%
U87MG cells [4]; scratch and modified Boyden chamber assays, normoxic or hypoxic conditions (FIG. 14)
  migration ability of cells: reduced
